Measurements: patent US8697877B2, “Oxyindole derivatives with motilin receptor agonistic activity” (RaQualia Pharma Inc., priority 2009, dated 2014)

Target: T1, human motilin receptor (GPR38) (Homo sapiens, UniProt O43193)
T1 construct: expressed in transfected cells; host or cells: CHO-K1
Experiment: GPR38 (Motilin Receptor) Functional Assay, NFAT-beta-lactamase reporter in CHO-K1 cells
Assay type: cell-based
In short: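 CHO-K1 cells stably carrying NFAT-beta-lactamase reporter and human motilin receptor, 8000 cells/well, compound 4.5 h at 37° C. CCF4-AM loaded 2 h at room temperature; fluorescence read at ex 400 nm, em 465/540 nm. Agonist EC50 from sigmoidal dose-response curve.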

T1 sequence (O43193 whole entry): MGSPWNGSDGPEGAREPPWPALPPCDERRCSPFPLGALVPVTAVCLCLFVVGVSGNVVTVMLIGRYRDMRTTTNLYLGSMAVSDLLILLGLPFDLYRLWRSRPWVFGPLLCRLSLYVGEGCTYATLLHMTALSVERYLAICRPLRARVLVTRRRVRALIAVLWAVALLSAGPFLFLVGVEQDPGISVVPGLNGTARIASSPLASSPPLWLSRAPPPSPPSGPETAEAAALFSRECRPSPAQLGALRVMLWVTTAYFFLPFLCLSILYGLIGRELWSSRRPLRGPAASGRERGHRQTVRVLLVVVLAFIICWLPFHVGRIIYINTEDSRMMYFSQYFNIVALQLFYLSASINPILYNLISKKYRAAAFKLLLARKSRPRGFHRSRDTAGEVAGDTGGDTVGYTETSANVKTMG

`CC1(C)C(=O)N(C2CCN(C(=O)[C@H](CCc3ccccc3)NC(=O)NC[C@@H]3CCNC3)CC2)c2ccccc21` [Example 53, 1-((S)-1-(4-(3,3-dimethyl-2-oxo-indolin-1-yl)piperidin-1-yl)-1-oxo-4-phenylbutan-2-yl)-3-((R)-pyrrolidin-3-ylmethyl)urea] was tested, and the EC50 was ≤ 10 nM.
